# Target: T1, hNav1.7 (Homo sapiens, UniProt Q15858)
# T1 construct: expressed in transfected cells
# Assay: hNav1.7 inactivated state (SIS) automated patch clamp electrophysiology
# Type: cell-based
# Settings: Assay Conc. 10 uM; inactivated state protocol, HEK cells, whole-cell Patchliner
# Description: hNav1.7, hNav1.2, hNav1.3, hNav1.4, hNav1.5, hNav1.6 were stably expressed in human embryonic kidney cells and kept under constant antibiotic selection. For in vitro assays, cells were maintained in appropriate growth medium at 37° C. and 5% CO2 in a humidified incubator.
# Nav1.x expressing cells plated in T-25 flasks for 2-3 days prior to use and grown to 70-85% confluence were briefly trypsinized to obtain a single cell suspension of ˜2-3×10^6 cells/ml. All electrophysiological recordings were performed at ambient temperature (21-23° C.) using automated patch clamp (Patchliner, Nanion Technologies GmbH) in the whole-cell configuration using the following solutions: Internal solution contained (in mM): CsCl (50), NaCl (10), CsF (60), EGTA (20), HEPES (10), pH 7.2 KOH, 285 mOsmol·Kg^−1. External (bath) solution contained (in mM): NaCl (140), KCl (4), MgCl2 (1), CaCl2 (2) D-Glucose monohydrate (5), HEPES (10), pH 7.4 NaOH, 298 mOsmol·kg^−1.
# For each Nav1.x channel, a steady state inactivation curve was obtained in order to calculate the voltage resulting in 50% channel inactivation (V0.5inact). A 2 pulse protocol was then employed in which cells held at a voltage corresponding to 20 mV more negative to V0.5 inact were depolarised to −10 mV for 20 ms before returning to the previous holding voltage. This test pulse constituted P1 and represents 100% available (non-inactivated) Nav1.x channels. The same cell was then depolarised for 8 s to a voltage corresponding to 7 mV more positive than V0.5inact in order to cause channel inactivation. Following a brief (2 ms) hyperpolarising voltage step to −120 mV (to reset the activation gate), cells were again subjected to a depolarising test pulse (P2) to −10 mV for 20 ms before returning to the holding potential. Each sequence was repeated 6×at 30 s intervals. Using this protocol, control P2 current amplitudes (representing the % channels available following 8 s inactivation) was ˜50% of control P1 current amplitude. 6 repetitions of this recording sequence were made in the control bath solution and then again 2 minutes after compound addition and thereafter at increasing compound concentrations. % inhibition was calculated by (1−(P2drug at repetition 6/P2control at repetition 6))*100. Data were either presented as % block by a single concentration of drug or an estimated eIC50 determined from 2-3 drug concentrations which was determined by fitting data with a sigmoidal dose response curve (variable slope) using GraphPad Prism software (Version 6.0).
# All compounds were dissolved in DMSO to 20 mM initially. Subsequent dilutions in DMSO were made to achieve 200×final bath concentrations. DMSO compound stocks were finally diluted 1/200 in bath solution just prior to assay resulting in a final DMSO concentration of 0.5% which was not found to affect control current amplitude.
# T1 sequence (Q15858 whole entry): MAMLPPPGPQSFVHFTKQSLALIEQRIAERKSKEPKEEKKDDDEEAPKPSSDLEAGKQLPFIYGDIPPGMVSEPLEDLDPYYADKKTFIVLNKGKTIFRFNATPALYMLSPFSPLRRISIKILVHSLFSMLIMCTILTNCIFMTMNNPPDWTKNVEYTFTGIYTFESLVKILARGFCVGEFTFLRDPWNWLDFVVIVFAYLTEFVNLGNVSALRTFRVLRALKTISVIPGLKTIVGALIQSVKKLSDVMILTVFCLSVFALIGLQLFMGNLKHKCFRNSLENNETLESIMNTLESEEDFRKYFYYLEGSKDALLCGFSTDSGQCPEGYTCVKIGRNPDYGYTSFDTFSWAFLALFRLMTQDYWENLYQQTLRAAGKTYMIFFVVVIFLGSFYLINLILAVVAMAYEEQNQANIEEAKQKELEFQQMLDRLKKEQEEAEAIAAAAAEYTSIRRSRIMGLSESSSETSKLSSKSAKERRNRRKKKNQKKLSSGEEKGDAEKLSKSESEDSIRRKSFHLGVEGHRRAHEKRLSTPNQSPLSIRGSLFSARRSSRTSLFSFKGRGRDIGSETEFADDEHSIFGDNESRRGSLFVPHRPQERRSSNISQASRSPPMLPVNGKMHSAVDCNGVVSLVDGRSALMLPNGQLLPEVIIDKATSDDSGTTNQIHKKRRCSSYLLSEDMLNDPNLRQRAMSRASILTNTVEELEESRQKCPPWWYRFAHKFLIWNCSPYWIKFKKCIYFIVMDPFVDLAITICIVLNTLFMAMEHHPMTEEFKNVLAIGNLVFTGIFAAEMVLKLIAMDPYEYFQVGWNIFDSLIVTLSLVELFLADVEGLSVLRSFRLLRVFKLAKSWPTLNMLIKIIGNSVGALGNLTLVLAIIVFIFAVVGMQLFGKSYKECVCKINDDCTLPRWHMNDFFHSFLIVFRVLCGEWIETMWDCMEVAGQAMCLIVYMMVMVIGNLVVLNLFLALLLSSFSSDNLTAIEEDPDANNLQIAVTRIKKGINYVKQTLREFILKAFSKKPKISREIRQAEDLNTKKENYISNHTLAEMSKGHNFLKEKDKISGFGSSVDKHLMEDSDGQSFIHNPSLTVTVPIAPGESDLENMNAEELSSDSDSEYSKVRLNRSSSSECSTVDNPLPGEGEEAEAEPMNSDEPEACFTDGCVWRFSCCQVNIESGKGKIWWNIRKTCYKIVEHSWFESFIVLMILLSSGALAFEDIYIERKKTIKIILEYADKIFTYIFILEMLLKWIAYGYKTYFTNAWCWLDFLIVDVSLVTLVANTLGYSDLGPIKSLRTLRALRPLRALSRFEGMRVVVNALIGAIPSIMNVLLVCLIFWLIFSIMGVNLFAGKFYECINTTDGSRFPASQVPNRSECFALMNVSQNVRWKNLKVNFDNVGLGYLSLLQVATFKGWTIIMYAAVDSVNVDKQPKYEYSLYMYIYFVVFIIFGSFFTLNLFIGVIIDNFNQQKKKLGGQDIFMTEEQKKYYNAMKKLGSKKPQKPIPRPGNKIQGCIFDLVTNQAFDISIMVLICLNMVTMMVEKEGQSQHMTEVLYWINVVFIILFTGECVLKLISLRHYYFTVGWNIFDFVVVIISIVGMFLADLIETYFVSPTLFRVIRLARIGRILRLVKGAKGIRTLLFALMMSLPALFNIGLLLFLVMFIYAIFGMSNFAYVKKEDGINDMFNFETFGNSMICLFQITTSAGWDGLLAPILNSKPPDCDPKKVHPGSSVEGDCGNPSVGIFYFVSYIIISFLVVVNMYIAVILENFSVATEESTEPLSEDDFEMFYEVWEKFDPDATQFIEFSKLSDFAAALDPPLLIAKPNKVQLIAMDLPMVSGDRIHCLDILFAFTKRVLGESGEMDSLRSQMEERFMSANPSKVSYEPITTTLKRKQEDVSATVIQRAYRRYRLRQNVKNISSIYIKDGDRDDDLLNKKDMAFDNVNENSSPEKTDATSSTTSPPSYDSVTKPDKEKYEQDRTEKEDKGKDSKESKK
row,Structure (SMILES),hNav1.7 SIS (% inh)
1,O=C(NCc1ccc(OCc2ccccc2F)cc1)c1cn2ccccc2n1 [Compound 25],71%

# Same assay, conditions: HEK293, Assay Conc. 3 uM; inactivated state protocol, HEK cells, whole-cell Patchliner; read-out: hNav1.7 SIS (% inh)
row,Structure (SMILES),inhibition at 3 µM
1,O=C(NCc1ccc(OCc2ccccc2F)cc1)c1csc(C(F)(F)F)n1 [Compound 23],61%

# Same assay, conditions: HEK293, Assay Conc. 10 uM; inactivated state protocol, HEK cells, whole-cell Patchliner; read-out: hNav1.7 SIS (% inh)
row,Structure (SMILES),inhibition at 10 µM
1,O=C(NCc1ccc(OCc2ccccc2F)cc1)c1cc2cccn2cn1 [Compound 2],48%
2,CC(C)(Oc1ccc(CNC(=O)c2cccn3cnnc23)cc1)c1ccccc1F [Compound 7],35%
3,Cc1cnc(C(=O)NCc2ccc(OCc3ccccc3F)cc2)cn1 [Compound 22],59%
4,O=C(NCc1ccc(OCc2ccccc2F)cc1)c1ccn2cnnc2c1 [Compound 10],30%
5,O=C(NCc1ccc(OCc2ccccc2F)cc1)c1ccc2cncn2c1 [Compound 46],34%
6,Cc1n[nH]c(C(=O)NCc2ccc(OCc3ccccc3F)cc2)n1 [Compound 8],44%
7,O=C(NCc1ccc(OCc2ccccc2F)cc1)c1cccc2cncn12 [Compound 19],35%
8,COc1ncc(C(=O)NCc2ccc(OCc3ccccc3F)cc2)cn1 [Compound 6],47%
9,COC[C@H](C)N(Cc1ccc(OCc2ccccc2F)cc1)C(=O)c1cn2ccccc2n1 [Compound 24],63%
10,O=C(NCc1ccc(OCc2ccccc2F)cc1)c1ccn2cncc2c1 [Compound 18],50%
11,CN(Cc1ccc(OCc2ccccc2F)cc1)C(=O)c1csc(C(F)(F)F)n1 [Compound 4],36%
12,Cn1cccc(C(=O)NCc2ccc(OCc3ccccc3F)cc2)c1=O [Compound 16],32%
13,O=C(NCc1ccc(OCc2ccccc2F)cc1)c1cn[nH]c1 [Compound 3],34%
14,O=C(NCc1ccc(OCc2ccccc2F)cc1)c1ccn2ncnc2c1 [Compound 15],51%
15,O=C(NCc1ccc(OCC2CCCC2)cc1)c1ccn2ccnc2c1 [Compound 52],45%
16,O=C(NCc1ccc(OCc2ccccc2F)cn1)c1cccn2cnnc12 [Compound 20],36%
17,O=C(NCc1ccc(OCc2ccccc2F)cc1)c1cccc2ncnn12 [Compound 13],42%
18,CN(Cc1ccc(OCc2ccccc2F)cc1)C(=O)c1cn2ccccc2n1 [Compound 27],92%
19,O=C(NCc1ccc(OCc2ccccc2F)cc1)c1cccn2ncnc12 [Compound 14],49%
20,COc1ncccc1C(=O)NCc1ccc(OCc2ccccc2F)cc1 [Compound 17],32%
21,Cn1ccc(C(=O)NCc2ccc(OCc3ccccc3F)cc2)cc1=O [Compound 12],35%
22,O=C(NCc1ccc(OCc2ccccc2F)cc1)c1cn2ccccc2n1 [Compound 53],56%
23,O=C(NCc1ccc(OCc2ccccc2F)cc1)c1cc[nH]c(=O)c1 [Compound 11],34%
24,O=C(NCc1ccc(OCc2ccccc2F)cc1)c1cccnc1 [Compound 1],41%
25,O=C(NCc1ccc(OCc2ccccc2F)cc1)c1nnc(C2CC2)o1 [Compound 9],35%
26,O=C(NCc1ccc(OCc2ccccc2F)cc1)c1cscn1 [Compound 21],52%
27,Cc1nc(C(=O)NCc2ccc(OCc3ccccc3F)cc2)cs1 [Compound 5],39%

# Same assay, conditions: estimated eIC50 from 2-3 drug concentrations; inactivated state protocol
row,Structure (SMILES),IC50
1,O=C(NCc1ccc(OCc2ccccc2F)cc1)c1ccn2ccnc2c1 [Compound 26],5.2 µM
2,Cc1nc(C(=O)NCc2ccc(OCc3ccccc3F)cc2)cn1C [Compound 43],8.6 µM
3,CC(C)(Oc1ccc(CNC(=O)c2ccn3ccnc3c2)cc1)c1ccccc1F [Compound 29],6.5 µM
4,O=C(NCc1ccc(OCC2CCCC2)cc1)c1cccn2cnnc12 [Compound 51],0.98 µM
5,Cc1nc(C(=O)NCc2ccc(OCc3ccccc3F)cc2)sc1C [Compound 35],5.5 µM
6,O=C(NCc1ccc(OCC2CCCCC2)cc1)c1cccn2cnnc12 [Compound 49],2.5 µM
7,COC[C@H](C)N(Cc1ccc(OCc2ccccc2F)cc1)C(=O)c1cn2ccccc2n1 [Compound 24],7.2 µM
8,Cc1cc(C(=O)NCc2ccc(OCc3ccccc3F)cc2)n(C)n1 [Compound 41],8.9 µM
9,Cc1csc(C(=O)NCc2ccc(OCc3ccccc3F)cc2)n1 [Compound 34],9.4 µM
10,Cn1cnc(C(=O)NCc2ccc(OCc3ccccc3F)cc2)n1 [Compound 32],5.9 µM
11,O=C(NCc1ccc(OCc2ccccc2F)cc1)c1cnc2ccccn12 [Compound 37],8.9 µM
12,O=C(NCc1ccc(OCc2ccccc2F)cc1)c1cccn2cnnc12 [Compound 39],4.1 µM
13,O=C(NCc1ccc(OCc2ccccc2F)cc1)c1cccc2ccnn12 [Compound 38],3.2 µM
14,O=C(NCc1ccc(OCc2ccccc2F)cc1)c1cccn2ccnc12 [Compound 40],3.5 µM
15,COC[C@@H](C)N(Cc1ccc(OCc2ccccc2F)cc1)C(=O)c1cn2ccccc2n1 [Compound 44],6.3 µM
16,O=C(NCc1ccc(OCc2ccccc2F)cc1)c1csc(C(F)(F)F)n1 [Compound 23],1.9 µM
17,O=C(NCc1ccc(OCc2ccccc2F)cc1)c1nccn2ccnc12 [Compound 31],3.2 µM
18,O=C(NCc1ccc(OCC2CCCCC2)cc1)c1cn2ccccc2n1 [Compound 50],3.2 µM
19,O=C(NCc1ccc(OCC2CCCCC2)cc1)c1ccn2ccnc2c1 [Compound 48],5.7 µM
20,CN(Cc1ccc(OCc2ccccc2F)cc1)C(=O)c1cn2ccccc2n1 [Compound 27],4.3 µM
21,O=C(NCc1ccc(OCc2ccccc2F)cc1)c1cccn2nnnc12 [Compound 30],7.5 µM
22,O=C(NCc1ccc(OCc2ccccc2F)cc1)c1cccn2cncc12 [Compound 45],7.6 µM
23,Cc1cccc(C(=O)NCc2ccc(OCc3ccccc3F)cc2)n1 [Compound 36],5.6 µM
24,O=C(NCc1ccc(OCC2CCCCC2)cc1)c1ccc2cncn2c1 [Compound 47],3.6 µM
25,O=C(NCc1ccc(OCc2ccccc2F)cc1)c1cn2ccccc2n1 [Compound 25],5.7 µM
26,CC(C)(Oc1ccc(CNC(=O)c2cccn3ccnc23)cc1)c1ccccc1F [Compound 28],2.6 µM
27,O=C(NCc1ccc(OCc2ccccc2F)cc1)c1nc(C(F)(F)F)cs1 [Compound 33],7.5 µM
28,CC(C)c1cc(C(=O)NCc2ccc(OCc3ccccc3F)cc2)n[nH]1 [Compound 42],6.2 µM

# — US20240262825A1, “PAIN TREATING COMPOUNDS AND USES THEREOF” (BIONOMICS LIMITED, priority 2018, published 2024)
